How the values were obtained:
[1] = tested on: Akt phosphorylation in Panc-1 cells; experiment: Western AKT cell-based phosphorylation assay; parameters: species or system human; conditions: at 10 μM, values in brackets < > are activation %, not inhibition
Outline: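 Panc-1 cells starved overnight in 0.5% FBS, exposed to compound at 10 μM (0.3% DMSO) for 6 h at 37° C, then stimulated with 1.5 ng/ml EGF for 15 min. Lysates probed by western blot with anti-phospho-Akt (Ser473), equal protein loading checked by Ponceau S.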

[2] = tested on: MIA-PaCa-2 pancreatic cancer cell line (KRAS G12C); experiment: Cell proliferation assay (CellTiter 96 Aqueous One); type: cell-based; conditions: Homo sapiens; for inhibition at 10 µM: MIA PaCa-2, read-out: % inh cell proliferation (10 μM) in MIA PaCa-2
Outline: (§1)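 Read-out is MTS-based viability (CellTiter 96 Aqueous One) after 2–4 days of compound exposure at 37 °C in 10% FBS with 0.3% DMSO.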

[3] = tested on: PANC-1 pancreatic cancer cell line (KRAS G12D); experiment: as above; type: cell-based; conditions: Homo sapiens; PANC-1, 2-4 days, 10% FBS
Outline: as §1

[4] = tested on: SW-620 colorectal cancer cell line (KRAS G12V); experiment: as above; type: cell-based; conditions: Homo sapiens; SW-620, 2-4 days, 10% FBS
Outline: as §1

Row | IC50 ([2]; MIA PaCa-2, MIA PaCa-2) [µM] | IC50 ([2]; MIA PaCa-2, MIA-PaCa-2, 2-4 days, 10% FBS) [µM] | IC50 [3] [µM] | IC50 [4] [µM] | SMILES | % inh of AKT phosphorylation in PANC-1 [1] | inhibition at 10 µM [2] [%]
1 | 1 to 4.99 | – | – | – | CO[C@H]1CC[C@@H](Nc2nc(-c3nccn3C)nc3sc(-c4cn(C)cn4)c(-c4ccccc4)c23)C1 (racemic) [Example 3, Rac-N-((1R,3S)-3-methoxycyclopentyl)-2-(1-methyl-1H-imidazol-2-yl)-6-(1-methyl-1H-imidazol-4-yl)-5-phenylthieno[2,3-d]pyrimidin-4-amine] | 0 (0% inhibition) | 76 to 100
2 | 5 to 10 | – | – | – | COc1ccn2c(-c3nc(O)c4scc(-c5ccccn5)c4n3)ncc2c1 [Compound 85, 2-(7-Methoxyimidazo[1,5-a]pyridin-3-yl)-7-(pyridin-2-yl)thieno[3,2-d]pyrimidin-4-ol] | 0 (0% inhibition) | 51 to 75
3 | 5 to 10 | – | – | – | COc1ccc2cnc(-c3nc(O)c4scc(-c5ccccn5)c4n3)n2c1 [Compound 86, 2-(6-Methoxyimidazo[1,5-a]pyridin-3-yl)-7-(pyridin-2-yl)thieno[3,2-d]pyrimidin-4-ol] | B (26-50% inhibition) | 51 to 75
4 | 5 to 10 | > 3 | < 0.4 | < 0.4 | COCCn1c(-c2nc(O)c3scc(-c4ccccn4)c3n2)nc2ccccc21 [Compound 87, 2-(1-(2-Methoxyethyl)-1H-benzo[d]imidazol-2-yl)-7-(pyridin-2-yl)thieno[3,2-d]pyrimidin-4-ol] | <A> | 76 to 100
5 | > 10 | – | – | – | Oc1nc(-c2ccncn2)nc2c(-c3ccccn3)csc12 [Compound 88, 7-(Pyridin-2-yl)-2-(pyrimidin-4-yl)thieno[3,2-d]pyrimidin-4-ol] | <B> | 26 to 50
6 | > 10 | – | – | – | Oc1nc(-c2cccnc2)nc2c(-c3ccccn3)csc12 [Compound 89, 7-(Pyridin-2-yl)-2-(pyridin-3-yl)thieno[3,2-d]pyrimidin-4-ol] | 0 (0% inhibition) | 26 to 50
7 | > 10 | – | – | – | Cn1ccc(-c2nc(O)c3scc(-c4ccccn4)c3n2)n1 [Compound 90, 2-(1-Methyl-1H-pyrazol-3-yl)-7-(pyridin-2-yl)thieno[3,2-d]pyrimidin-4-ol] | 0 (0% inhibition) | 1 to 25
8 | > 10 | – | – | – | Cn1nccc1-c1nc(O)c2scc(-c3ccccn3)c2n1 [Compound 91, 2-(1-Methyl-1H-pyrazol-5-yl)-7-(pyridin-2-yl)thieno[3,2-d]pyrimidin-4-ol] | 0 (0% inhibition) | 0
9 | > 10 | – | – | – | Cc1cnc(-c2nc(O)c3scc(-c4ccccn4)c3n2)s1 [Compound 92, 2-(5-Methylthiazol-2-yl)-7-(pyridin-2-yl)thieno[3,2-d]pyrimidin-4-ol] | 0 (0% inhibition) | 0
10 | 5 to 10 | – | – | – | COCCn1ccnc1-c1nc(O)c2scc(-c3ccncc3)c2n1 [Compound 94, 2-(1-(2-Methoxyethyl)-1H-imidazol-2-yl)-7-(pyridin-4-yl)thieno[3,2-d]pyrimidin-4-ol] | 0 (0% inhibition) | 51 to 75
11 | > 10 | – | – | – | COc1nc(-c2nccn2C)nc2c(-c3ncccc3F)csc12 [Compound 95, 7-(3-Fluoropyridin-2-yl)-4-methoxy-2-(1-methyl-1H-imidazol-2-yl)thieno[3,2-d]pyrimidine] | 0 (0% inhibition) | 0
12 | 1 to 4.99 | – | – | – | CO[C@H]1C[C@@H](Nc2nc(-c3nccn3C)nc3sc(-c4cn(C)cn4)c(-c4ccccc4)c23)C1 [Example 2, N-((1s,3s)-3-methoxycyclobutyl)-2-(1-methyl-1H-imidazol-2-yl)-6-(1-methyl-1H-imidazol-4-yl)-5-phenylthieno[2,3-d]pyrimidin-4-amine] | 0 (0% inhibition) | 51 to 75

— US20230227466A1, “SUBSTITUTED THIENOPYRIMIDINES THAT INTERACT WITH THE RAS SUPERFAMILY FOR THE TREATMENT OF CANCERS, INFLAMMATORY DISEASES, RASOPATHIES, AND FIBROTIC DISEASE” (SHY Therapeutics, LLC, priority 2020, published 2023)
